This note sets out measurements from ChEMBL document CHEMBL1137214, “11beta-alkyl-Delta9-19-nortestosterone derivatives: high-affinity ligands and potent partial agonists of the androgen receptor” (J Med Chem, 2004).

pIC50: −log10 of the molar value.

For one assay, the target named is T1, Glucocorticoid receptor (Homo sapiens, UniProt P04150).
T1 sequence (P04150 whole entry): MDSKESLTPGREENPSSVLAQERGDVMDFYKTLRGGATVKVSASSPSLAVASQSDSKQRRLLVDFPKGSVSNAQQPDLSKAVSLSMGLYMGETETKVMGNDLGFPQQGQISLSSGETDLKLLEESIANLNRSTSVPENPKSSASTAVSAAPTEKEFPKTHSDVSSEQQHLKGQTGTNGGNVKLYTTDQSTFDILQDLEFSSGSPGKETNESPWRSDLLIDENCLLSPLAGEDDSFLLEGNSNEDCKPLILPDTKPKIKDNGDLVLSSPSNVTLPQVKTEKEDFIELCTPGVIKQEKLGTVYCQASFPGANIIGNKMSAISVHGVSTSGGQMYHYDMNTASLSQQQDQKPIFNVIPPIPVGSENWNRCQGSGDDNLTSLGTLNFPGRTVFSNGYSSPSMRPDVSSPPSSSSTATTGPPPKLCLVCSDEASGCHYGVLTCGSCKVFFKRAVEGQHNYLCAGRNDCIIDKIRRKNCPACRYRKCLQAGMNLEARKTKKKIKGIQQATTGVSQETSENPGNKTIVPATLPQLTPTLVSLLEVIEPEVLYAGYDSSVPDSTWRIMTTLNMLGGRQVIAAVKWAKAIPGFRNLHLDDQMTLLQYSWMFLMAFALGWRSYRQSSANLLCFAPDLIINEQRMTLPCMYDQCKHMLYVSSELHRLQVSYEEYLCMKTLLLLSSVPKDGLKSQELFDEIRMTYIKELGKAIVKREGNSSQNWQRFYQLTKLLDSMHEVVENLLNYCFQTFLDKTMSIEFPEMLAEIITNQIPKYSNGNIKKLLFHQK
Nature of the assay: Inhibition of CHO-K1 cells expressing glucocorticoid receptor. The assay is classed as cell-based.

For assay [1], the target named is T2, Androgen receptor (Homo sapiens, UniProt P10275).
T2 sequence (P10275 whole entry): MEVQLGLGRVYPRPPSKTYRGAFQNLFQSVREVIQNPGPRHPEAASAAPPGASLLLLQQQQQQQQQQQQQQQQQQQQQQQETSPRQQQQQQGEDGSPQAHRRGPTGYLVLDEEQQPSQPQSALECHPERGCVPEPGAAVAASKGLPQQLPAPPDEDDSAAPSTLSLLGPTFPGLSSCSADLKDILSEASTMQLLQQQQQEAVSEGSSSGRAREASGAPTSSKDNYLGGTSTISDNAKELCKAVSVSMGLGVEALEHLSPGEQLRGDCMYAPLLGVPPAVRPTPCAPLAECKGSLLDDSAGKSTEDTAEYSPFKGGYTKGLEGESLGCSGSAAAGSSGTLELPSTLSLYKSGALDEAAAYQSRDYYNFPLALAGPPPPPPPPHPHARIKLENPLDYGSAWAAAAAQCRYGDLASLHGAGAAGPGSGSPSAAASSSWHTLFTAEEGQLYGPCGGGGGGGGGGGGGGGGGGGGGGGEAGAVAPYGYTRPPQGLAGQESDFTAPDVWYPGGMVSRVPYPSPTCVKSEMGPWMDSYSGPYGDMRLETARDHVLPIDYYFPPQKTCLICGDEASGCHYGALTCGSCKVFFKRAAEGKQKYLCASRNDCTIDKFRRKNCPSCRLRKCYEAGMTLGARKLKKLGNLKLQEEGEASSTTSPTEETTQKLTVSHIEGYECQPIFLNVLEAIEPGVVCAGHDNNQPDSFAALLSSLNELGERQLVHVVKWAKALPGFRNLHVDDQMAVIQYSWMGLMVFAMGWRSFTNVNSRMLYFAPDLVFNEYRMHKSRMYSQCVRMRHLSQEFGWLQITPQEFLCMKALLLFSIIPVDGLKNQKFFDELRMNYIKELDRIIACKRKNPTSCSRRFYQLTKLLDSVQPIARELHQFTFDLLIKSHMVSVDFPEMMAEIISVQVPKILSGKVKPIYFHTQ
Nature of the assay: Inhibition of human androgen receptor expressed in Escherichia coli.

Assay [2] addresses T2, Androgen receptor. Nature of the assay: Inhibition of AR-dimerization in CHO-K1 cells expressing human androgen receptor.

Consider `CCCCC[C@H]1C[C@@]2(C)C(CC[C@@H]2O)C2CCC3=CC(=O)CCC3=C21` (stereo partly drawn), for which the pIC50 against Glucocorticoid receptor is 6.90; on Androgen receptor [1] it was 10.00; at Androgen receptor [2] it was 11.05.
For `CCCCCCCCCC[C@H]1C[C@@]2(C)C(CC[C@@H]2O)C2CCC3=CC(=O)CCC3=C21` (stereo partly drawn), in that order: 5.74, 9.10 and 7.07.
Take `CCCCCCCCCCCC[C@H]1C[C@@]2(C)C(CC[C@@H]2O)C2CCC3=CC(=O)CCC3=C21` (stereo partly drawn): the negative logarithm of the IC50 (pIC50) at Glucocorticoid receptor was 6.06; on Androgen receptor [1] it was 9.70.
`CC[C@H]1C[C@@]2(C)C(CC[C@@H]2O)C2CCC3=CC(=O)CCC3=C21` (stereo partly drawn): the pIC50 against Glucocorticoid receptor was 5.89; against Androgen receptor [1], 8.70.
With `CCCCCCCC[C@H]1C[C@@]2(C)C(CC[C@@H]2O)C2CCC3=CC(=O)CCC3=C21` (stereo partly drawn), the pIC50 on Glucocorticoid receptor is 6.01; on Androgen receptor [1], 8.18; against Androgen receptor [2], 9.05.
